Measured values: PMC3626541, “A first in human, safety, pharmacokinetics, and clinical activity phase I study of once weekly administration of the Hsp90 inhibitor ganetespib (STA-9090) in patients with solid malignancies” (BMC Cancer, 2013)

Test system: patients with advanced solid tumors
Assay: Safety: adverse events (NCI CTCAE v3.0), ECG
Assay type: in vivo, human
Procedure: Patients’ demographics and medical history were recorded at baseline. Physical examination and PS were assessed at baseline and on Day 1 of each cycle. Adverse events (AEs), vital signs, hematology and chemistry values, and creatinine clearance were assessed at baseline and weekly during treatment. Toxicity was graded using National Cancer Institute Common Terminology Criteria for Adverse Events (NCI CTCAE), version 3.0. An electrocardiogram (ECG) was performed at baseline, before and after treatment on Days 1 and 15 of Cycles 1 and 2, and on Day 15 of even-numbered cycles thereafter. CT scans were done at baseline and every 8 weeks thereafter. Tumor response was assessed using Response Evaluation Criteria in Solid Tumors (RECIST, v1.0), with confirmation of responses performed at least 4 weeks later.

In the case of `CC(C)c1cc(-c2n[nH]c(=O)n2-c2ccc3c(ccn3C)c2)c(O)cc1O` [Ganetespib, 5-[2,4-dihydroxy-5-(1 methyl-ethyl)phenyl]-2,4 dihydro-4-(1-methyl-1H indol-5 yl)-3H-1,2,4 triazole-3-one], the “Constipation, AE of any grade, Number (%) of patients” value (150-216 mg/m^2, n = 22) is reported as 3 (13.6) n (%), the “Decreased appetite, AE of any grade, Number (%) of patients” value (150-216 mg/m^2, n = 22) is reported as 8 (36.4) n (%) and the “Dehydration, AE of any grade, Number (%) of patients” value (150-216 mg/m^2, n = 22) is reported as 3 (13.6) n (%). For the same molecule, the “Dehydration, CTCAE Grade 3 and 4 AE, Number (%) of patients” value (150-216 mg/m^2, n = 22) was 1 (4.5) n (%), the “Dehydration, serious adverse events, Number (%) of patients” value (150-216 mg/m^2, n = 22) was 1 (4.5) n (%) and the “Diarrhea, AE of any grade, Number (%) of patients” value (150-216 mg/m^2, n = 22) was 21 (95.5) n (%). For the same molecule, the “Diarrhea, CTCAE Grade 3 and 4 AE, Number (%) of patients” value (150-216 mg/m^2, n = 22) was 2 (9.1) n (%), the “Dizziness, AE of any grade, Number (%) of patients” value (150-216 mg/m^2, n = 22) was 3 (13.6) n (%) and the “Dry mouth, AE of any grade, Number (%) of patients” value (150-216 mg/m^2, n = 22) was 3 (13.6) n (%). The “Dyspnea, AE of any grade, Number (%) of patients” value (150-216 mg/m^2, n = 22) was 4 (18.2) n (%), the “Extremity pain, AE of any grade, Number (%) of patients” value (150-216 mg/m^2, n = 22) was 1 (4.5) n (%) and the “Fatigue, AE of any grade, Number (%) of patients” value (150-216 mg/m^2, n = 22) was 13 (59.1) n (%). The “Fatigue, CTCAE Grade 3 and 4 AE, Number (%) of patients” value (150-216 mg/m^2, n = 22) was 4 (18.2) n (%), the “Headache, AE of any grade, Number (%) of patients” value (150-216 mg/m^2, n = 22) was 6 (27.3) n (%) and the “Hyperbilirubinemia, CTCAE Grade 3 and 4 AE, Number (%) of patients” value (150-216 mg/m^2, n = 22) was 2 (9.1) n (%). The “Hypokalemia, AE of any grade, Number (%) of patients” value (150-216 mg/m^2, n = 22) was 4 (18.2) n (%), the “Hypokalemia, CTCAE Grade 3 and 4 AE, Number (%) of patients” value (150-216 mg/m^2, n = 22) was 2 (9.1) n (%) and the “Hyponatremia, CTCAE Grade 3 and 4 AE, Number (%) of patients” value (150-216 mg/m^2, n = 22) was 0 n (%). The “Hypophosphatemia, AE of any grade, Number (%) of patients” value (150-216 mg/m^2, n = 22) was 2 (9.1) n (%), the “Hypophosphatemia, CTCAE Grade 3 and 4 AE, Number (%) of patients” value (150-216 mg/m^2, n = 22) was 2 (9.1) n (%) and the “Insomnia, AE of any grade, Number (%) of patients” value (150-216 mg/m^2, n = 22) was 6 (27.3) n (%). For the same molecule, the “Musculoskeletal chest pain, AE of any grade, Number (%) of patients” value (150-216 mg/m^2, n = 22) was 4 (18.2) n (%), the “Nausea, AE of any grade, Number (%) of patients” value (150-216 mg/m^2, n = 22) was 7 (31.8) n (%) and the “Peripheral edema, AE of any grade, Number (%) of patients” value (150-216 mg/m^2, n = 22) was 5 (22.7) n (%). For the same molecule, the “Pneumonia, serious adverse events, Number (%) of patients” value (150-216 mg/m^2, n = 22) was 1 (4.5) n (%), the “Rash, AE of any grade, Number (%) of patients” value (150-216 mg/m^2, n = 22) was 1 (4.5) n (%) and the “Serum amylase elevated, CTCAE Grade 3 and 4 AE, Number (%) of patients” value (150-216 mg/m^2, n = 22) was 1 (4.5) n (%). For the same molecule, the “Spinal cord compression, CTCAE Grade 3 and 4 AE, Number (%) of patients” value (150-216 mg/m^2, n = 22) was 0 n (%), the “Urinary tract infection, AE of any grade, Number (%) of patients” value (150-216 mg/m^2, n = 22) was 3 (13.6) n (%) and the “Vomiting, AE of any grade, Number (%) of patients” value (150-216 mg/m^2, n = 22) was 3 (13.6) n (%). For the same molecule, the “Weight decreased, AE of any grade, Number (%) of patients” value (150-216 mg/m^2, n = 22) was 5 (22.7) n (%), the “ALT elevated, AE of any grade, Number (%) of patients” value (150-216 mg/m^2, n = 22, first of two ALT elevated lines) was 5 (22.7) n (%) and the “ALT elevated, AE of any grade, Number (%) of patients” value (150-216 mg/m^2, n = 22, second of two ALT elevated lines) was 3 (13.6) n (%). For the same molecule, the Incidence of diarrhea (150–216 mg/m^2 dose levels) was 95.5%, the Incidence of fatigue (150–216 mg/m^2 dose levels) was 59.1% and the “ALT elevation, CTCAE Grade 3 and 4 AE, Number (%) of patients” value (All patients, n = 53) was 3 (5.7) n (%). The “AST elevated, AE of any grade, Number (%) of patients” value (All patients, n = 53) was 9 (17) n (%), the “Abdominal distension, AE of any grade, Number (%) of patients” value (All patients, n = 53) was 6 (11.3) n (%) and the “Abdominal pain, AE of any grade, Number (%) of patients” value (All patients, n = 53) was 20 (37.7) n (%). The “Abdominal pain, serious adverse events, Number (%) of patients” value (All patients, n = 53) was 2 (3.8) n (%), the “Anemia, AE of any grade, Number (%) of patients” value (All patients, n = 53) was 16 (30.2) n (%) and the “Any event, AE of any grade, Number (%) of patients” value (All patients, n = 53) was 53 (100) n (%). The “Any event, CTCAE Grade 3 and 4 AE, Number (%) of patients” value (All patients, n = 53) was 36 (67.9) n (%), the “Any event, serious adverse events, Number (%) of patients” value (All patients, n = 53) was 15 (28.3) n (%) and the “Arthralgia, CTCAE Grade 3 and 4 AE, Number (%) of patients” value (All patients, n = 53) was 2 (3.8) n (%). The “Asthenia, AE of any grade, Number (%) of patients” value (All patients, n = 53) was 8 (15.1) n (%), the “Asthenia, CTCAE Grade 3 and 4 AE, Number (%) of patients” value (All patients, n = 53) was 4 (7.5) n (%) and the “Asthenia, serious adverse events, Number (%) of patients” value (All patients, n = 53) was 2 (3.8) n (%). The “Back pain, AE of any grade, Number (%) of patients” value (All patients, n = 53) was 8 (15.1) n (%), the “Constipation, AE of any grade, Number (%) of patients” value (All patients, n = 53) was 9 (17) n (%) and the “Decreased appetite, AE of any grade, Number (%) of patients” value (All patients, n = 53) was 11 (20.8) n (%). The “Dehydration, AE of any grade, Number (%) of patients” value (All patients, n = 53) was 7 (13.2) n (%), the “Dehydration, CTCAE Grade 3 and 4 AE, Number (%) of patients” value (All patients, n = 53) was 3 (5.7) n (%) and the “Dehydration, serious adverse events, Number (%) of patients” value (All patients, n = 53) was 2 (3.8) n (%). The “Diarrhea, AE of any grade, Number (%) of patients” value (All patients, n = 53) was 47 (88.7) n (%) and the “Diarrhea, CTCAE Grade 3 and 4 AE, Number (%) of patients” value (All patients, n = 53) was 4 (7.5) n (%).
